# Measurements from PubChem BioAssay AID1963423 (Molecular Pharmacology Branch, DTP, NCI, 2024).
# Test system: 439559-082-T-J2-PDC complex spheroid growth
# Assay: Anticancer human tumor 439559-082-T-J2-PDC patient-derived colon adenocarcinoma cell line growth inhibition [Asc]
# Conditions: for IC50: curve of first compound; for viability, T/C: stronger effect = lower value
# In short: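 Concentration series start at each agent's clinical Cmax, or at 10 microM when none is established, and drop in half-log steps; agents are applied alone or together to complex spheroids built with HUVEC and hMSC.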
# 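Further: spheroids exposed to agents for 7 days starting day 3 after seeding.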
# 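Wherever viability, T/C is given: percent of DMSO vehicle control viability with 100% = vehicle.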
compound,measurement,setting,value
Cc1nc(N2CCC3(CC2)COC(C)C3N)c(CO)nc1Sc1ccnc(N)c1Cl (configuration not stated) + CCN1C(C(=O)NC23CCC(C(=O)O)(CC2)CC3)C(c2cccc(Cl)c2F)C2(C(=O)Nc3cc(Cl)ccc32)C12CCCCC2,IC50,second compound 0.03 µM,> 3 µM
same,IC50,second compound 0.0949 µM,> 3 µM
same,IC50,second compound 0.3 µM,> 3 µM
same,IC50,second compound 0.949 µM,> 3 µM
same,IC50,second compound 3 µM,> 3 µM
same,"viability, T/C","second compound 0.03 µM, first compound 0.00949 µM",109%
same,"viability, T/C","second compound 0.03 µM, first compound 0.03 µM",110%
same,"viability, T/C","second compound 0.03 µM, first compound 0.0949 µM",106%
same,"viability, T/C","second compound 0.03 µM, first compound 0.3 µM",91.6%
same,"viability, T/C","second compound 0.03 µM, first compound 0.949 µM",91.7%
same,"viability, T/C","second compound 0.03 µM, first compound 3 µM",80.3%
same,"viability, T/C","second compound 0.0949 µM, first compound 0.00949 µM",107%
same,"viability, T/C","second compound 0.0949 µM, first compound 0.03 µM",109%
same,"viability, T/C","second compound 0.0949 µM, first compound 0.0949 µM",114%
same,"viability, T/C","second compound 0.0949 µM, first compound 0.3 µM",93.7%
same,"viability, T/C","second compound 0.0949 µM, first compound 0.949 µM",86.9%
same,"viability, T/C","second compound 0.0949 µM, first compound 3 µM",86.1%
same,"viability, T/C","second compound 0.3 µM, first compound 0.00949 µM",106%
same,"viability, T/C","second compound 0.3 µM, first compound 0.03 µM",111%
same,"viability, T/C","second compound 0.3 µM, first compound 0.0949 µM",105%
same,"viability, T/C","second compound 0.3 µM, first compound 0.3 µM",87.8%
same,"viability, T/C","second compound 0.3 µM, first compound 0.949 µM",91.2%
same,"viability, T/C","second compound 0.3 µM, first compound 3 µM",81.2%
same,"viability, T/C","second compound 0.949 µM, first compound 0.00949 µM",103%
same,"viability, T/C","second compound 0.949 µM, first compound 0.03 µM",113%
same,"viability, T/C","second compound 0.949 µM, first compound 0.0949 µM",115%
same,"viability, T/C","second compound 0.949 µM, first compound 0.3 µM",93.5%
same,"viability, T/C","second compound 0.949 µM, first compound 0.949 µM",93.2%
same,"viability, T/C","second compound 0.949 µM, first compound 3 µM",82.2%
same,"viability, T/C","second compound 3 µM, first compound 0.00949 µM",89.5%
same,"viability, T/C","second compound 3 µM, first compound 0.03 µM",96%
same,"viability, T/C","second compound 3 µM, first compound 0.0949 µM",97.4%
same,"viability, T/C","second compound 3 µM, first compound 0.3 µM",87.8%
same,"viability, T/C","second compound 3 µM, first compound 0.949 µM",77.9%
same,"viability, T/C","second compound 3 µM, first compound 3 µM",82.7%
O=C(c1cc(Cc2n[nH]c(=O)c3ccccc23)ccc1F)N1CCN(C(=O)C2CC2)CC1 + CNC(C)C(=O)NC1CN(S(=O)(=O)c2cccc(S(=O)(=O)N3CCC4CCC(C(=O)NC(c5ccccc5)c5ccccc5)N4C(=O)C(NC(=O)C(C)NC)C3)c2)CCC2CCC(C(=O)NC(c3ccccc3)c3ccccc3)N2C1=O,IC50,second compound 0.00316 µM,0.333 µM
same,IC50,second compound 0.01 µM,> 10 µM
same,IC50,second compound 0.0316 µM,> 10 µM
same,IC50,second compound 0.1 µM,> 10 µM
same,IC50,second compound 0.316 µM,> 10 µM
same,IC50,second compound 1 µM,> 10 µM
same,"viability, T/C","second compound 0.00316 µM, first compound 0.0316 µM",54.7%
same,"viability, T/C","second compound 0.00316 µM, first compound 0.1 µM",47.2%
same,"viability, T/C","second compound 0.00316 µM, first compound 0.316 µM",49.1%
same,"viability, T/C","second compound 0.00316 µM, first compound 1 µM",49.9%
same,"viability, T/C","second compound 0.00316 µM, first compound 3.16 µM",40.7%
same,"viability, T/C","second compound 0.00316 µM, first compound 10 µM",28.4%
same,"viability, T/C","second compound 0.01 µM, first compound 0.0316 µM",94.2%
same,"viability, T/C","second compound 0.01 µM, first compound 0.1 µM",86.3%
same,"viability, T/C","second compound 0.01 µM, first compound 0.316 µM",93.2%
same,"viability, T/C","second compound 0.01 µM, first compound 1 µM",96%
same,"viability, T/C","second compound 0.01 µM, first compound 3.16 µM",113%
same,"viability, T/C","second compound 0.01 µM, first compound 10 µM",104%
same,"viability, T/C","second compound 0.0316 µM, first compound 0.0316 µM",103%
same,"viability, T/C","second compound 0.0316 µM, first compound 0.1 µM",96.2%
same,"viability, T/C","second compound 0.0316 µM, first compound 0.316 µM",108%
same,"viability, T/C","second compound 0.0316 µM, first compound 1 µM",99.6%
same,"viability, T/C","second compound 0.0316 µM, first compound 3.16 µM",101%
same,"viability, T/C","second compound 0.0316 µM, first compound 10 µM",89.8%
same,"viability, T/C","second compound 0.1 µM, first compound 0.0316 µM",99.8%
same,"viability, T/C","second compound 0.1 µM, first compound 0.1 µM",101%
same,"viability, T/C","second compound 0.1 µM, first compound 0.316 µM",99.2%
same,"viability, T/C","second compound 0.1 µM, first compound 1 µM",96.5%
same,"viability, T/C","second compound 0.1 µM, first compound 3.16 µM",99.2%
same,"viability, T/C","second compound 0.1 µM, first compound 10 µM",102%
same,"viability, T/C","second compound 0.316 µM, first compound 0.0316 µM",105%
same,"viability, T/C","second compound 0.316 µM, first compound 0.1 µM",103%
same,"viability, T/C","second compound 0.316 µM, first compound 0.316 µM",102%
same,"viability, T/C","second compound 0.316 µM, first compound 1 µM",94.8%
same,"viability, T/C","second compound 0.316 µM, first compound 3.16 µM",99%
same,"viability, T/C","second compound 0.316 µM, first compound 10 µM",91.1%
same,"viability, T/C","second compound 1 µM, first compound 0.0316 µM",81.9%
same,"viability, T/C","second compound 1 µM, first compound 0.1 µM",78.3%
same,"viability, T/C","second compound 1 µM, first compound 0.316 µM",93.5%
same,"viability, T/C","second compound 1 µM, first compound 1 µM",85.1%
same,"viability, T/C","second compound 1 µM, first compound 3.16 µM",95.7%
same,"viability, T/C","second compound 1 µM, first compound 10 µM",65.4%
